Data taken from PMC12543283, “TastepepAI: An artificial intelligence platform for taste peptide de novo design” (PLOS Computational Biology, 2025).
Ends that are not written are not given here.

Legend:
[1] = Electronic tongue analysis (Taste-Sensing System SA 402B); design: unit not given here; details: reference solution 30 mM KCl + 0.3 mM tartaric acid as baseline, first measurement excluded; for Umami: sensor AAE; for Umami / Bitter / Sweet: detection threshold 0, room temperature; for Umami / Bitter / Sour / Salty: four replicates; for Sour: detection threshold -13, room temperature; for Salty: detection threshold -6, room temperature; for Sweet: measured five times
Procedure, shortened: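 Room-temperature electronic-tongue readings with five taste probes, calibrated against a reference of 30 mM KCl and 0.3 mM tartaric acid. Samples at 0.1 mg/mL and 1.0 mg/mL were measured four times, sweetness five times, and the first run was dropped. Detection cut-offs were sour −13, salty −6, others 0.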

[2] = tested on: human bronchial epithelial cells (BEAS-2B)
[3] = tested on: human embryonic kidney cells (HEK293T)
[4] = tested on: human pancreatic ductal epithelial cells (HPNE)
[5] = tested on: human umbilical vein endothelial cells (HUVEC)

Substance	Umami ([1]; peptide 0.1 mg/mL)	Umami ([1]; peptide 1 mg/mL)	Bitter ([1]; sensor C00, peptide 0.1 mg/mL)	Bitter ([1]; sensor C00, peptide 1 mg/mL)	Sour ([1]; sensor CA0, peptide 0.1 mg/mL)	Sour ([1]; sensor CA0, peptide 1 mg/mL)	Salty ([1]; sensor CT0, peptide 0.1 mg/mL)	Salty ([1]; sensor CT0, peptide 1 mg/mL)	Sweet ([1]; sensor GL1, peptide 0.1 mg/mL)	Sweet ([1]; sensor GL1, peptide 1 mg/mL)	Average cell viability, BEAS-2B [2]	Cell viability, BEAS-2B, Data1 [2]	Cell viability, BEAS-2B, Data2 [2]	Cell viability, BEAS-2B, Data3 [2]	Average cell viability, HEK293T [3]	Cell viability, HEK293T, Data1 [3]	Cell viability, HEK293T, Data2 [3]	Cell viability, HEK293T, Data3 [3]	Average cell viability, HPNE [4]	Cell viability, HPNE, Data1 [4]	further results
LQPDAGK [TaPep6]	1.99	-5.07	7.90	2.72	-4.43	10.67	-19.24	12.20	8.22	-5.48	102.76	91.82	107.88	108.57	98.83	101.83	97.29	97.38	97.97	95.64	Cell viability, HPNE, Data2 [4]: 99.55; Cell viability, HPNE, Data3 [4]: 98.73; Average cell viability, HUVEC [5]: 102.10; Cell viability, HUVEC, Data1 [5]: 91.96; Cell viability, HUVEC, Data2 [5]: 115.19; Cell viability, HUVEC, Data3 [5]: 99.15
VAEDLL [TaPep8]	2.66	-4.08	7.50	1.63	-5.63	8.25	-22.00	7.96	9.31	-4.65	103.39	114.76	90.53	104.89	101.07	102.68	95.30	105.24	106.12	109.62	Cell viability, HPNE, Data2 [4]: 99.23; Cell viability, HPNE, Data3 [4]: 109.52; Average cell viability, HUVEC [5]: 103.81; Cell viability, HUVEC, Data1 [5]: 109.13; Cell viability, HUVEC, Data2 [5]: 93.96; Cell viability, HUVEC, Data3 [5]: 108.33
ILEEQ [TaPep29]	1.81	-4.08	7.69	3.20	-3.61	10.60	-20.79	9.53	7.74	-5.49	114.56	114.56	111.96	117.15	100.41	100.88	96.44	103.91	96.81	101.03	Cell viability, HPNE, Data2 [4]: 96.44; Cell viability, HPNE, Data3 [4]: 92.95; Average cell viability, HUVEC [5]: 98.96; Cell viability, HUVEC, Data1 [5]: 93.24; Cell viability, HUVEC, Data2 [5]: 109.93; Cell viability, HUVEC, Data3 [5]: 93.72
EPKVLV [TaPep54]	3.06	-3.47	7.63	2.50	-7.11	8.51	-20.20	10.59	9.28	-6.29	102.43	95.01	108.18	104.09	102.24	103.15	102.49	101.07	100.23	115.91	Cell viability, HPNE, Data2 [4]: 95.44; Cell viability, HPNE, Data3 [4]: 89.35; Average cell viability, HUVEC [5]: 110.64; Cell viability, HUVEC, Data1 [5]: 113.84; Cell viability, HUVEC, Data2 [5]: 114.72; Cell viability, HUVEC, Data3 [5]: 103.38
FTEELE [TaPep32]	1.89	-4.56	7.51	2.80	-3.82	11.60	-20.95	9.59	8.60	-6.23	106.88	104.99	104.59	111.07	100.73	105.14	99.56	97.48	103.23	117.80	Cell viability, HPNE, Data2 [4]: 110.72; Cell viability, HPNE, Data3 [4]: 81.16; Average cell viability, HUVEC [5]: 98.11; Cell viability, HUVEC, Data1 [5]: 111.20; Cell viability, HUVEC, Data2 [5]: 89.81; Cell viability, HUVEC, Data3 [5]: 93.32
ESKDQ [TaPep55]	1.27	-4.53	7.76	2.75	-2.34	11.12	-19.80	11.30	5.21	-7.81	109.14	112.96	98.40	116.05	98.14	94.73	101.07	98.61	94.61	105.92	Cell viability, HPNE, Data2 [4]: 82.36; Cell viability, HPNE, Data3 [4]: 95.54; Average cell viability, HUVEC [5]: 102.82; Cell viability, HUVEC, Data1 [5]: 107.29; Cell viability, HUVEC, Data2 [5]: 96.11; Cell viability, HUVEC, Data3 [5]: 105.06
